Measurements as given in patent publication US20080166766A1, “Genetic incorporation of unnatural amino acids into proteins in mammalian cells” (The Scripps Research Institute, priority 2006, published 2008).

Columns and labels:
[1] = tested on: T-REx™ CHO cells; assay: Yield of purified mutant GFP containing unnatural amino acid (pSWAN two-plasmid system); assay type: cell-based, Chinese hamster; conditions: pMpa 10 mM, pApa 10 mM, pBpa 1 mM, pAzpa 5 mM, pPpa 1 mM in media, anti-myc column purified
Excerpt: The pMpaRS gene was inserted directly after the non-regulated CMV promoter for efficient and continuous expression of pMpaRS. Another plasmid (pSWAN-GFP37TAG in FIG. 4B) containing both three tandem repeats of the BstRNACUA^Tyr gene and the GFP37TAG gene was also constructed. The gene encoding GFP37TAG was inserted after a Tet-regulated CMV promoter to minimize potential read-through of the nonsense amber codon caused by endogenous amber suppression in mammalian cells. These two plasmids were then assayed for their suppression efficiency. Because both plasmids contain three tandem repeats of the BstRNACUA^Tyr gene, varying the ratio of the two plasmids to increase the suppression level is not expected to change the total amount of the BstRNACUA^Tyr gene transfected into cells. Under optimized transfection conditions (0.5 μg of pSWAN-pMpaRS and 2.5 μg pSWAN-GFP37TAG per 2×10^6 cells), the suppression level is roughly two-fold higher than that using the three plasmids pUC18-3BstRNACUA^Tyr, pcDNA4-pMpaRS, and pcDNA4-GFP37TAG (the suppression level was determined by the number of fluorescent cells). Cells were grown for 1-2 days after induction and kept viable before harvesting. The yield of mutant GFP containing pMpa (GFP-pMpa) was also quantified. In the presence of 10 mM pMpa in the growth media, 1 μg of mutant GFP can be obtained from 2×10^7 adhesive T-REx™ CHO cells.
Transient transfection of T-REx™ CHO and 293 cells with the pSWAN-EcTyrRS variants and pSWAN-GFP37TAG (0.5 μg of pSWAN-EcTyrRS variant and 2.5 μg of pSWAN-GFP37TAG per 2×10^6 cells) all afforded roughly two-fold higher suppression levels than for the three plasmids pUC18-3BstRNACUA^Tyr, pcDNA4-EcTyrRS variant, and pcDNA4-GFP37TAG (with the exception of the pIpa specific variant). Mutant GFPs containing pApa, pBpa, pAzpa or pPpa were also expressed in T-REx™ CHO cells transfected with the pSWAN-EcTyrRS variants and pSWAN-GFP37TAG and grown in media containing the corresponding unnatural amino acid (pApa, 10 mM; pBpa, 1 mM; pAzpa, 5 mM; or pPpa, 1 mM) for 1-2 days, and purified using an anti-myc antibody column. The yields of the mutant proteins containing pApa and pAzpa were close to that for pMpa (˜1 μg per 2×10^7 cells), and the yields of mutant proteins containing pBpa and pPpa were somewhat lower (˜0.7 μg per 2×10^7 cells). Because the expression levels of EcTyrRS variants in T-REx™ CHO cells are similar, the lower yield of the mutant proteins containing pBpa and pPpa may be due to the low concentrations of unnatural amino acids in the media.
pSWAN-EcTyrRS variants and pSWAN-GFP37TAG were used to express mutant GFPs containing unnatural amino acids. T-REx™ CHO cells (Invitrogen™) were grown in 75 cm^2 tissue culture flasks (BD Biosciences) to 80-90% confluency and transfected with 2 μg of pSWAN-EcTyrRS and 10 μg pSWAN-GFP37TAG using […] FuGENE® 6. After overnight incubation, the media were changed to the fresh media containing the unnatural amino acid (pMpa, 10 mM; pApa, 10 mM; pBpa, 1 mM; pAzpa, 5 mM; and pPpa, 1 mM) and 1 μg/ml tetracycline. Cells were then grown for 1-2 days at 37° C. before harvesting, and then lysed with RIPA lysis buffer. The supernatant from the cell lysate was dialyzed against and equilibrated with PBS buffer before loading onto an anti-myc antibody agarose column (Sigma). The column was washed with 15 column volumes of PBS buffer and then eluted with 0.1 M ammonium hydroxide. The purified proteins were neutralized with 0.1 M acetic acid and analyzed by SDS-PAGE. […]

[2] = tested on: position 37 of GFP; assay: Fidelity of unnatural amino acid incorporation by mass spectrometry (nano-RP LC/MS/MS, ESI TOF-MS); conditions: for wild type peptide signals in tandem MS of mutant GFP sample: nano-RP LC/MS/MS of tryptic fragments, mutant GFP from T-REx CHO cells
Excerpt: To further characterize GFP-pMpa, the mutant protein was expressed in T-REx™ CHO cells transiently transfected with both pSWAN-pMpaRS and pSWAN-GFP37TAG. The protein was purified using an anti-myc antibody agarose column and then separated by SDS-PAGE. The GFP-pMpa band from the SDS-PAGE gel was digested with trypsin and analyzed by nanoscale reversed-phase liquid chromatography/mass spectrometry/mass spectrometry (nano-RP LC/MS/MS). In parallel, wild type GFP was purified from cells transfected with pcDNA4-GFP and subjected to the same analysis.
Proteolysis of affinity purified proteins (performed for wild-type and pBpa samples) was carried out by overnight incubation of proteins at 37° C. with sequencing-grade modified trypsin (Promega) using a substrate/enzyme ratio of 10:1 (wt/wt) based on the estimated protein concentration in 100 mM triethylammonium bicarbonate buffer (pH 8.5). In-gel digestions (performed for pMpa, pAzpa, pApa, and pPpa samples) were performed according to a modified EMBL procedure (see the website for EMBL, Heidelberg, Germany, Bioanalytical Research Group). Briefly, gel slices were excised to approximately 1 mm×1 mm cubes, washed for 5 minutes with water, 15 minutes with acetonitrile, and dried in a vacuum centrifuge before being rehydrated at 0° C. for 30 minutes with 12.5 ng/μl of sequencing-grade modified trypsin in 50 mM triethylammonium bicarbonate buffer (pH 8.5). Excess buffer was removed and 20 μl of 50 mM triethylammonium bicarbonate buffer (pH 8.5) was added to the gel slices before incubating at 37° C. overnight. Peptides were extracted from the gel slices as described in the protocol.
Nano-RP LC/MS/MS was performed with an HPLC pump, autosampler (Agilent Technologies, Palo Alto, Calif.), and an LTQ Orbitrap hybrid mass spectrometer (ThermoElectron, San Jose, Calif.). Tryptic digests were loaded with a pressure bomb onto a 75 μm i.d. precolumn packed with 4 cm of 5-μm Monitor C18 particles (Column Engineering, Ontario, Calif.) at a flow rate of approximately 2 μl/min. The precolumn was then connected to the HPLC pump and after several minutes of washing with solvent A the analytical column with integrated emitter tip (360 μm O.D.×75 μm i.d; 10 cm of 5 μM C18, ˜5-μm tip) was connected in series. The chromatographic profile was from 100% solvent A (0.1% aqueous acetic acid) to 50% solvent B (0.1% acetic acid in acetonitrile) in 40 min; the flow rate through the analytical column was ca. 100 nl/min.
For data-dependent experiments, the mass spectrometer was programmed to first record a high-resolution Orbitrap scan then a full-scan ion trap spectrum (m/z 500-2,000). This was followed by 10 data-dependent MS/MS scans (relative collision energy=35%; 3-Da isolation window) triggered of the ion-trap scan and finally two targeted MS/MS scans. The first targeted MS/MS scan was set to isolate and fragment the doubly charged precursor ion of the predicted unnatural amino acid modified peptide
at m/z 752.3. The raw data were searched against the MSDB database using MASCOT (Matrixscience, London, UK) for protein identification and to find the scans containing the target peptides with the unnatural amino acids as variable modification. To estimate fidelity at Y*37 of GFP-pMpa, single ion chromatograms (doubly charged precursor ions at m/z 752.3 for the wt and 759.3 for pMpa) and selected ion chromatograms (y9, y11, and y12) were integrated using the Xcalibur software package (ThermoElectron, San Jose, Calif.).
Intact protein mass spectra were acquired on an automated LC/MS system (Waters, Milford, Mass.) consisting of a capillary LC with auto-sampler and a QTOF2 mass spectrometer. GFP-pMpa (0.1 mg/ml) was loaded onto a reversed-phase protein Captrap (Michrom Bioresources, Auburn, Calif.) for desalting with 0.1% acetic acid in water and eluted with 80% acetonitrile/0.1% acetic acid at 5 μl/min into the ESI source of the mass spectrometer. […]

[3] = tested on: T-REx™ 293 cells; assay: Cellular toxicity of unnatural amino acid in growth media; assay type: cell-based; conditions: 8 mM in growth media
[4] = tested on: Invitrogen™ T-REx™ CHO cells; assay: Amber suppression of GFP37TAG: full-length GFP expression by Western blot in T-REx CHO cells; assay type: cell-based, Chinese hamster; conditions: BstRNACUA^Tyr + EcTyrRS variant, unnatural amino acid in media (plpa 8 mM), 24 hours
Description: (§1) The ability of the six EcTyrRS variants together with BstRNACUA^Tyr to suppress the amber codon in GFP37TAG was then tested in the presence and absence of unnatural amino acids in the growth media. Transient transfection of cells with plasmids was carried out as described for wild type EcTyrRS. Six hours after transfection, the media were replaced by the fresh media containing 1 μg/ml tetracycline and supplemented with the corresponding unnatural amino acid (pMpa, 10 mM; pApa, 10 mM; pBpa, 1 mM; plpa, 8 mM; pAzpa, 5 mM; or pPpa, 1 mM). Cells were then grown 24 hours for T-REx™ CHO cell lines and 48 hours for T-REx™ 293 cell lines before harvesting. In both T-REx™ CHO and 293 cells, the expression of full length GFP37TAG was dependent upon the presence of unnatural amino acids in the growth media as indicated in FIG. 2 and FIG. 3. […]
(§2) For Western blot analysis, harvested cells were lysed in RIPA buffer (Upstate Biotechnology/Millipore) with a 1:100 dilution of protease inhibitor cocktail (Sigma). […] Chemiluminescence was then detected with PIERCE ECL Western Blotting substrate. For T-REx™ 293 cells, the membranes were probed with anti-His-HRP (Invitrogen™; 1:5000 dilution) and then detected with PIERCE ECL Western Blotting substrate.

[5] = tested on: Invitrogen™ T-REx™ 293 cells; assay: Amber suppression of GFP37TAG: full-length GFP expression by Western blot in T-REx 293 cells; assay type: cell-based, human; conditions: BstRNACUA^Tyr + EcTyrRS variant, unnatural amino acid in media (plpa 8 mM), 48 hours
Description: as §1, §2

| SMILES | yield of mutant GFP containing the unnatural amino acid [1] [μg per 2×10^7 cells] | wild type peptide signals in tandem MS of mutant GFP sample [2] | also measured |
| --- | --- | --- | --- |
| C#CCOc1ccc(C[C@H](N)C(=O)O)cc1 [pPpa, p-propargyloxyphenylalanine] | ~0.7 | No wild type signals could be detected | – |
| CC(=O)c1ccc(C[C@H](N)C(=O)O)cc1 [pApa, p-acetylphenylalanine] | ~1 | No wild type signals could be detected | – |
| N[C@@H](Cc1ccc(I)cc1)C(=O)O [plpa, p-iodophenylalanine] | – | – | time until cells die (cellular toxicity) [3]: 6 h; expression of full length GFP37TAG [4]: low expression level; expression of full length GFP37TAG [5]: no GFP expression |
| COc1ccc(C[C@H](N)C(=O)O)cc1 [pMpa, p-methoxyphenylalanine] | 1 | – | purity estimate from the three most abundant fragment ions (y9, y11, y12) in tandem MS ([2]; GFP-pMpa from T-REx CHO cells): 99.93%; fidelity for incorporation (integration of single ion chromatograms of precursor ions) ([2]; GFP-pMpa from T-REx CHO cells, tryptic peptide […]*GK): > 99.9%; wild type GFP signals in intact protein ESI TOF-MS ([2]; anti-myc purified GFP-pMpa, charge-state deconvoluted spectrum): No wild type GFP signals |
| N[C@@H](Cc1ccc(C(=O)c2ccccc2)cc1)C(=O)O [pBpa, p-benzoylphenylalanine] | ~0.7 | trace amount of the wild type peptide | – |
